The record followed here is patent KR20180032031A, “이소디메틸웨델로락톤을 포함하는 화장료 조성물” (주식회사 엘지생활건강, priority 2016, dated 2018).

Each structure is given as a SMILES string.

Assay [1] in a line: Anti-glycation effect (L-arginine and glucose). Particulars: 70 ℃, 4 h, 420 nm.
Assay [2] concerns RAW264.7 cells, nitric oxide (NO) [RAW264.7 세포, 일산화질소(NO)]. Kind of assay: NO production inhibition in LPS-stimulated RAW264.7 cells (GRIESS method). The format is cell-based. Particulars: Mus musculus, LPS 1 ㎍, 24 h, read-out: NO production inhibition rate. For orientation: Griess reagent forms a coloured azo dye with nitrite.
In assay [3] the test system is human-derived fibroblasts, type I collagen [인간 유래 섬유아세포, 제1형 콜라겐]. Kind of assay: Type I collagen synthesis promotion in human-derived fibroblasts (PICP EIA kit). The format is cell-based. Particulars: 48 h, n = 4.
Assay [4] can be described thus: Free radical scavenging (DPPH), antioxidant effect. The note with it: 37 ℃, 30 min, 520 nm, n = 3. On the technique in general: DPPH is a stable violet radical that fades when it is reduced.
Assay [5] has as its system B-16 mouse melanoma cells [쥐의 멜라노마 세포(B-16 mouse melanoma cell)]. Put plainly: Melanin total amount reduction in B-16 mouse melanoma cells (whitening effect). The format is cell-based. Particulars: 3 days, n = 3; for melanin production amount: absorbance at 400 nm per 1×10^6 cells.
Assay [6] addresses T1, elastase [엘라스타제] (Homo sapiens, UniProt P08246).
T1 construct: 엘라스타제(elastase)는 사람의 백혈구 세포로부터 유래한 것을 사용하였고; from tissue; host or cells: human leukocytes
T1 sequence (P08246 30-267): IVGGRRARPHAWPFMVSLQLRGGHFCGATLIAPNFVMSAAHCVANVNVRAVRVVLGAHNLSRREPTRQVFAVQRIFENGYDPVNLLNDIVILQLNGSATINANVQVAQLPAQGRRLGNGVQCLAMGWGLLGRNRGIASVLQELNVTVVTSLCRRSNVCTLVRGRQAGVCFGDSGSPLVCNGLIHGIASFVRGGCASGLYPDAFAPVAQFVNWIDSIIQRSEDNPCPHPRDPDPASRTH
Put plainly: Elastase activity inhibition. Particulars: pH 7.5, room temperature, n = 3; for enzyme activity: slope of absorbance at 405 nm. It counts as biochemical.

Assay [7] has as its system collagenase [콜라게네이즈]. Put plainly: Collagenase activity inhibition. The format is biochemical, rat/mouse. Particulars: pH 7.5, room temperature, n = 3; for enzyme activity: maximum slope of absorbance at 345 nm; for inhibition rate: collagenase.

For the molecule `N=C(N)NN` [Aminoguanidine, reference compound], the inhibition rate in assay [1] (55 ppm) worked out at 54.89%.

Broadly, the inhibition is the drop in the measured response relative to a control, in per cent. Regarding `CNC(=N)NCCC[C@H](N)C(=O)O` [L-NMMA, L-NG-Monomethylarginine, reference compound], the inhibition at 10 ppm in assay [2] was determined as 41%.

Take `O=C1O[C@H]([C@@H](O)CO)C(O)=C1O` [비타민 C, L-Ascorbic acid, reference compound]: the “type I collagen production amount” value in assay [3] (50 ppm) was 246.8 ng/mL. Besides, in assay [3] (Homo sapiens, Fibroblast, collagen production vs negative control, 50 ppm, read-out: increase rate), the activation at 50 ppm is 64.3%. In addition, the “free radical scavenging rate (IC50)” value in assay [4] is 7.5.

Molecule `OC[C@H]1O[C@@H](Oc2ccc(O)cc2)[C@H](O)[C@@H](O)[C@@H]1O` [알부틴, reference compound] showed a melanin production amount in assay [5] (100 ppm) of 0.228 abs. In addition, in assay [5] (Mus musculus, 72 h, total melanin vs negative control, 100 ppm, read-out: inhibition rate), the inhibition at 100 ppm worked out at 30.9%.

For the molecule `O=c1oc2c(O)cc(O)cc2c2oc3cc(O)c(O)cc3c12` [화학식1의 화합물, 2,4,8,9-tetrahydroxy-[1]benzofuro[3,2-c]chromen-6-one], the melanin production amount in assay [5] (1 ppm) is on record as 0.251 abs; in assay [5] (10 ppm) it was 0.232 abs. Besides, the inhibition at 1 ppm in assay [5] (Mus musculus, 72 h, total melanin vs negative control, 1 ppm, read-out: inhibition rate) is 23.9%; in assay [2] (1 ppm), 36.2%. Moreover, the inhibition at 10 ppm in assay [5] (Mus musculus, 72 h, total melanin vs negative control, 10 ppm, read-out: inhibition rate) stood at 29.7%; in assay [6] (elastase, 10 ppm, read-out: inhibition rate), 64.4%; in assay [2] it was 43.9%. For the same molecule, the “type I collagen production amount” value came out at 180.3 ng/mL in assay [3] (1 ppm) and 260.1 ng/mL in assay [3] (10 ppm). Further, the activation at 1 ppm in assay [3] (Homo sapiens, Fibroblast, collagen production vs negative control, 1 ppm, read-out: increase rate) was 20%. Also, the activation at 10 ppm in assay [3] (Homo sapiens, Fibroblast, collagen production vs negative control, 10 ppm, read-out: increase rate) is 73.2%. Further, the enzyme activity in assay [6] (10 ppm) was 3.7; in assay [6] (20 ppm), 3.2; in assay [7] (100 ppm), -2.34; in assay [7] (200 ppm), -2.61. Also, the inhibition at 20 ppm in assay [6] (elastase, 20 ppm, read-out: inhibition rate) stood at 69.1%. Besides, the inhibition rate in assay [7] (100 ppm) is 24.57%; in assay [7] (200 ppm), 32.37%; in assay [1] (25 ppm) it was 44.32%; in assay [1] (50 ppm) it was 65.20%. Further, in assay [2] (100 ppm), the inhibition at 100 ppm was found to be 55.2%.
